Results as given in PubChem BioAssay (NCI).
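In this assay, cells in 96-well plates receive the compound at five concentrations for 48 hours. Endpoints are linearly interpolated between the surrounding concentrations. Definition used: TGI = concentration required for complete inhibition of growth.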

Assays:
Experiment in all cases: NCI-60 cell line screen, 48 h
786-0 renal = tested on: 786-0 renal
A498 renal = tested on: A498 renal
A549 NSCLC = tested on: A549 NSCLC
ACHN renal = tested on: ACHN renal
BT-549 breast = tested on: BT-549 breast
CAKI-1 renal = tested on: CAKI-1 renal
CCRF-CEM leukemia = tested on: CCRF-CEM leukemia
DU-145 prostate = tested on: DU-145 prostate
EKVX NSCLC = tested on: EKVX NSCLC
HCT-116 colon = tested on: HCT-116 colon
HCT-15 colon = tested on: HCT-15 colon
HOP-62 NSCLC = tested on: HOP-62 NSCLC
HOP-92 NSCLC = tested on: HOP-92 NSCLC
HS 578T breast = tested on: HS 578T breast
HT29 colon = tested on: HT29 colon
IGROV1 ovarian = tested on: IGROV1 ovarian
KM12 colon = tested on: KM12 colon
MALME-3M melanoma = tested on: MALME-3M melanoma
MCF7 breast = tested on: MCF7 breast
MDA-MB-231 breast = tested on: MDA-MB-231 breast
MDA-N = tested on: MDA-N
MOLT-4 leukemia = tested on: MOLT-4 leukemia
NCI-H226 lung = tested on: NCI-H226 lung
NCI-H23 lung = tested on: NCI-H23 lung
NCI/ADR-RES ovarian = tested on: NCI/ADR-RES ovarian
OVCAR-3 ovarian = tested on: OVCAR-3 ovarian
OVCAR-5 ovarian = tested on: OVCAR-5 ovarian
PC-3 prostate = tested on: PC-3 prostate
SF-268 CNS = tested on: SF-268 CNS
SF-295 CNS = tested on: SF-295 CNS
SK-MEL-28 melanoma = tested on: SK-MEL-28 melanoma
SK-MEL-5 melanoma = tested on: SK-MEL-5 melanoma
SK-OV-3 ovarian = tested on: SK-OV-3 ovarian
SN12C renal = tested on: SN12C renal
SNB-19 CNS = tested on: SNB-19 CNS
SNB-75 CNS = tested on: SNB-75 CNS
SR leukemia = tested on: SR leukemia
SW-620 colon = tested on: SW-620 colon
T-47D breast = tested on: T-47D breast
TK-10 renal = tested on: TK-10 renal
U251 CNS = tested on: U251 CNS
UO-31 renal = tested on: UO-31 renal
COLO 205 colon = tested on: COLO 205 colon
HCC-2998 colon = tested on: HCC-2998 colon
HL-60(TB) leukemia = tested on: HL-60(TB) leukemia
K-562 leukemia = tested on: K-562 leukemia
LOX IMVI melanoma = tested on: LOX IMVI melanoma
M14 melanoma = tested on: M14 melanoma
MDA-MB-435 = tested on: MDA-MB-435
NCI-H460 lung = tested on: NCI-H460 lung
NCI-H522 lung = tested on: NCI-H522 lung
OVCAR-4 ovarian = tested on: OVCAR-4 ovarian
OVCAR-8 ovarian = tested on: OVCAR-8 ovarian
RXF 393 renal = tested on: RXF 393 renal
SF-539 CNS = tested on: SF-539 CNS
SK-MEL-2 melanoma = tested on: SK-MEL-2 melanoma
UACC-257 melanoma = tested on: UACC-257 melanoma
UACC-62 melanoma = tested on: UACC-62 melanoma
RPMI-8226 leukemia = tested on: RPMI-8226 leukemia

Measured: TGI

C/C=C(\C)c1cc(=O)c2c(C)cc3c(c2o1)C(OC)(OC(C)=O)c1c(O)c(C2CC(C)(N(C)C)C(OC(C)=O)C(C)O2)cc(C2CC(N(C)C)C(OC(C)=O)C(C)O2)c1C3=O (stereo not drawn)
7.47 µM: BT-549 breast
10.3 µM: MOLT-4 leukemia
5.03 µM: NCI-H226 lung
> 21.4 µM: 786-0 renal
7.63 µM: HS 578T breast
3.49 µM: A498 renal
> 20.4 µM: HT29 colon | U251 CNS
6.44 µM: SNB-75 CNS
57.1 µM: IGROV1 ovarian
4.71 µM: MDA-N
26.1 µM: SK-MEL-28 melanoma
1.52 µM: ACHN renal
> 34.1 µM: HCT-116 colon
8.59 µM: SK-OV-3 ovarian
6.9 µM: HCT-15 colon
5.08 µM: DU-145 prostate
1.49 µM: MDA-MB-231 breast
> 25.7 µM: NCI/ADR-RES ovarian
5.23 µM: SN12C renal
4.89 µM: SF-268 CNS
6.91 µM: HOP-92 NSCLC
2.42 µM: NCI-H23 lung
4.68 µM: UO-31 renal
> 100 µM: A549 NSCLC | HOP-62 NSCLC | MCF7 breast | PC-3 prostate | SK-MEL-5 melanoma | TK-10 renal
14.1 µM: SNB-19 CNS
> 41.8 µM: OVCAR-3 ovarian
11.6 µM: EKVX NSCLC
8.24 µM: KM12 colon
9.39 µM: CAKI-1 renal
9.75 µM: OVCAR-5 ovarian
10.1 µM: CCRF-CEM leukemia
4.94 µM: SW-620 colon
17.6 µM: T-47D breast
2.37 µM: MALME-3M melanoma
14.6 µM: SF-295 CNS
0.842 µM: SR leukemia

COc1ccc(N=C(CS(=O)c2ccc(C)cc2)C(F)(F)F)cc1 (stereo not drawn)
50.9 µM: HL-60(TB) leukemia
not listed: A498 renal | HOP-62 NSCLC | HS 578T breast | SF-268 CNS | RPMI-8226 leukemia
> 100 µM: all other assays above

CC(C)=CC1C(COC(=O)c2ccccc2Cl)C1(C)C (stereo not drawn)
75.4 µM: HCT-15 colon
57.6 µM: IGROV1 ovarian
99.1 µM: KM12 colon
90.2 µM: U251 CNS
86.3 µM: HOP-92 NSCLC
92.6 µM: EKVX NSCLC
38.9 µM: LOX IMVI melanoma
95.1 µM: BT-549 breast
67.7 µM: HL-60(TB) leukemia
70.3 µM: MALME-3M melanoma
75.8 µM: OVCAR-3 ovarian
82.2 µM: NCI-H226 lung
49.5 µM: NCI-H522 lung
65.3 µM: SK-MEL-5 melanoma
65.6 µM: RXF 393 renal
60.1 µM: HS 578T breast
not listed: MCF7 breast | SK-OV-3 ovarian | SNB-75 CNS | COLO 205 colon | HCC-2998 colon | SF-539 CNS | RPMI-8226 leukemia
> 100 µM: all other assays above

OCC1C2CCC3(OCCO3)C12 (stereo not drawn)
35.6 µM: BT-549 breast
29.6 µM: UO-31 renal
33.7 µM: NCI-H23 lung
33 µM: UACC-62 melanoma
not listed: A498 renal | HS 578T breast | T-47D breast | HL-60(TB) leukemia
> 100 µM: all other assays above
